≈ marks a conversion by molar mass, not a printed value.
How the values were obtained:
Format in all cases: functional
[1] = tested on: Mycobacterium tuberculosis; experiment: Antimycobacterial activity against rifampicin and rifabutin sensitive Mycobacterium tuberculosis
[2] = tested on: Mycobacterium tuberculosis; experiment: Antimycobacterial activity against Mycobacterium tuberculosis H37 Rv ATCC 27294
[3] = tested on: Mycobacterium avium; experiment: Antimycobacterial activity against Mycobacterium avium-intracellulare complex measured as susceptibility at 1 ug/mL
[4] = tested on: Mycobacterium kansasii; experiment: Antimycobacterial activity against Mycobacterium kansasii measured as susceptibility at 1 ug/mL

CCCCN1[C@@H](c2ccccc2)C[C@@]2(C[C@H]1c1ccccc1)N=C1C(=C3NC(=O)/C(C)=C\C=C\[C@H](C)[C@H](O)[C@@H](C)[C@H](O)[C@H](C)[C@H](OC(C)=O)[C@H](C)[C@@H](OC)/C=C/O[C@@]4(C)Oc5c(C)c(O)c(c1c5C4=O)C3=O)N2
MIC [1]: 0.02 µg/mL (≈ 0.02 µM)
MIC [2]: 0.02 µg/mL (≈ 0.02 µM)
Activity [3]: 40%
Activity [4]: 100%

COc1ccc([C@@H]2C[C@]3(C[C@H](c4ccc(OC)cc4)N2)N=C2C(=C4NC(=O)/C(C)=C\C=C\[C@H](C)[C@H](O)[C@@H](C)[C@H](O)[C@H](C)[C@H](OC(C)=O)[C@H](C)[C@@H](OC)/C=C/O[C@@]5(C)Oc6c(C)c(O)c(c2c6C5=O)C4=O)N3)cc1
MIC [1]: 0.02 µg/mL (≈ 0.0199 µM)
MIC [2]: 0.02 µg/mL (≈ 0.0199 µM)
Activity [3]: 60%
Activity [4]: 100%

CO[C@H]1/C=C/O[C@@]2(C)Oc3c(C)c(O)c4c(c3C2=O)C2=N[C@@]3(C[C@@H](c5ccccc5)N[C@@H](c5ccccc5)C3)NC2=C(NC(=O)/C(C)=C\C=C\[C@H](C)[C@H](O)[C@@H](C)[C@H](O)[C@H](C)[C@H](OC(C)=O)[C@@H]1C)C4=O
MIC [1]: 0.02 µg/mL (≈ 0.0212 µM)
MIC [2]: 0.02 µg/mL (≈ 0.0212 µM)
Activity [3]: 100%
Activity [4]: 100%

C=CCN1[C@@H](c2ccccc2)C[C@@]2(C[C@H]1c1ccccc1)N=C1C(=C3NC(=O)/C(C)=C\C=C\[C@H](C)[C@H](O)[C@@H](C)[C@H](O)[C@H](C)[C@H](OC(C)=O)[C@H](C)[C@@H](OC)/C=C/O[C@@]4(C)Oc5c(C)c(O)c(c1c5C4=O)C3=O)N2
MIC [1]: 0.02 µg/mL (≈ 0.0203 µM)
MIC [2]: 0.02 µg/mL (≈ 0.0203 µM)
Activity [3]: <=40%
Activity [4]: 100%

CO[C@H]1/C=C/O[C@@]2(C)Oc3c(C)c(O)c4c(c3C2=O)C2=N[C@]3(C[C@@H](c5ccccc5)N[C@@H](c5ccccc5)C3)NC2=C(NC(=O)/C(C)=C\C=C\[C@H](C)[C@H](O)[C@@H](C)[C@H](O)[C@H](C)[C@H](OC(C)=O)[C@@H]1C)C4=O
MIC [1]: 0.02 µg/mL (≈ 0.0212 µM)
MIC [2]: 0.02 µg/mL (≈ 0.0212 µM)
Activity [3]: 100%
Activity [4]: 100%

CO[C@H]1/C=C/O[C@@]2(C)Oc3c(C)c(O)c4c(c3C2=O)C2=N[C@@]3(C[C@@H](c5ccc(F)cc5)N[C@@H](c5ccc(F)cc5)C3)NC2=C(NC(=O)/C(C)=C\C=C\[C@H](C)[C@H](O)[C@@H](C)[C@H](O)[C@H](C)[C@H](OC(C)=O)[C@@H]1C)C4=O
MIC [1]: 0.02 µg/mL (≈ 0.0204 µM)
MIC [2]: 0.02 µg/mL (≈ 0.0204 µM)
Activity [3]: 100%
Activity [4]: 100%

C=CCCN1[C@@H](c2ccccc2)C[C@@]2(C[C@H]1c1ccccc1)N=C1C(=C3NC(=O)/C(C)=C\C=C\[C@H](C)[C@H](O)[C@@H](C)[C@H](O)[C@H](C)[C@H](OC(C)=O)[C@H](C)[C@@H](OC)/C=C/O[C@@]4(C)Oc5c(C)c(O)c(c1c5C4=O)C3=O)N2
MIC [1]: 0.02 µg/mL (≈ 0.0201 µM)
MIC [2]: 0.02 µg/mL (≈ 0.0201 µM)
Activity [3]: 80%
Activity [4]: 100%

CO[C@H]1/C=C/O[C@@]2(C)Oc3c(C)c(O)c4c(c3C2=O)C2=NC3(CCN(CC(C)C)CC3)NC2=C(NC(=O)/C(C)=C\C=C\[C@H](C)[C@H](O)[C@@H](C)[C@@H](O)[C@@H](C)[C@H](OC(C)=O)[C@@H]1C)C4=O [RIFABUTIN]
MIC [1]: 0.02 µg/mL (≈ 0.0236 µM)
MIC [2]: 0.02 µg/mL (≈ 0.0236 µM)
Activity [3]: 20%
Activity [4]: 100%

CO[C@H]1/C=C/O[C@@]2(C)Oc3c(C)c(O)c4c(O)c(c(/C=N/N5CCN(C)CC5)c(O)c4c3C2=O)NC(=O)/C(C)=C\C=C\[C@H](C)[C@H](O)[C@@H](C)[C@@H](O)[C@@H](C)[C@H](OC(C)=O)[C@@H]1C [RIFAMPIN]
MIC [1]: 0.02 µg/mL (≈ 0.0243 µM)
MIC [2]: 0.02 µg/mL (≈ 0.0243 µM)
Activity [3]: 0%
Activity [4]: 100%
